Assay [1] relates to ATXN3 transcripts containing exon 4 (E4E5). In words: ATXN3 quantitative splicing assay (qPCR, SK-N-MC cells). It counts as cell-based. The conditions noted are these: Homo sapiens, 24 h treatment, qPCR E4E5 primers/probe, read-out: ATXN3 Potency - Splicing E4E5 IC50. On the procedure:
Human neuroblastoma SK-N-MC cells were plated in 384-well plates at 20,000 cells/well. Twenty-four hours after plating, cells were treated with compounds for 24 h at appropriate concentrations ranging from 30 μM to 0.6 nM (0.3% DMSO). Treated cells were lysed in 15 μL of lysis buffer, and cDNA was synthesized using the Fast Advanced Cells-to-Ct kit. Two μL of each cDNA was used in qPCR reactions to confirm the exon 4 skipped transcripts of ATXN3. A second set of primers/probe E4E5 was used to detect the transcripts containing exon 4. The third set of primers/probe E8E9 was used to detect total gene level of ATXN3. The qPCR reactions were prepared in 384-well plates in 10 μL volume, using TaqMan™ Fast Advanced Master Mix with primers and probes shown in the table below. Reactions were run in a Quant Studio 6 qPCR instrument with default settings.
The primers and probes are listed below in Table 4.

In assay [2] the test system is total ATXN3 protein. In words: ATXN3 total protein assay (MSD, SK-N-MC cells). It counts as cell-based, Human. Particulars: 48 hours incubation, read-out: ATXN3 Potency - Protein IC50. As for the experimental part:
Human neuroblastoma SK-N-MC cells were seeded at 10,000 cells/well in 384 well plates one day prior to compound treatment. The concentrations of compounds were tested at appropriate doses ranging from 30 μM to 0.6 nM. After incubation for 48 hours, the cells were lysed with 25 μL of lysis buffer containing protease inhibitors, and total ATXN3 protein levels were assessed by Mesoscale Discovery (MSD) assay developed with one pair of anti-ATXN3 antibodies. The capture and detect antibodies were raised in mouse and rabbit respectively. Anti-rabbit MSD-ST antibody was used for secondary antibody.
ATXN3 recombinant protein was used for standards. The readouts were captured with 35 μL of MSD read buffer and multi-array 384-well high binding plates.

Regarding `Cc1c(C[C@H](C)N)sc2c(NCc3cc(F)cs3)cnnc12` [Compound 45, 6-[(2S)-2-aminopropyl]-N-[(4-fluorothiophen-2-yl)methyl]-7-methylthieno[3,2-c]pyridazin-4-amine], the IC50 in assay [1] and in assay [2] was 0.501 to 5 µM throughout.

Regarding `Cc1c(C[C@H](C)N)sc2c(NCc3cnco3)cnnc12` [Compound 46, 6-[(2S)-2-aminopropyl]-7-methyl-N-[(1,3-oxazol-5-yl)methyl]thieno[3,2-c]pyridazin-4-amine], the IC50 in assay [1] and in assay [2] was 10 to 40 µM throughout.

On to `Cc1c(C[C@@H](N)CCF)sc2c(NCc3cccs3)cnnc12` [Compound 48, 6-[(2S)-2-amino-4-fluorobutyl]-7-methyl-N-(thiophen-2-ylmethyl)thieno[3,2-c]pyridazin-4-amine], for which the half-inhibitory concentration (IC50) in assay [1] and in assay [2] was 0.501 to 5 µM in each case.

Consider `Cc1c(C[C@@H](C)N)sc2c(NCc3cccs3)cnnc12` [Compound 49, 6-[(2R)-2-aminopropyl]-7-methyl-N-[(thiophen-2-yl)methyl]thieno[3,2-c]pyridazin-4-amine], for which the 50% inhibitory concentration (IC50) in assay [1] and in assay [2] was 10 to 40 µM in each case.

In the case of `Cc1c(C[C@@H](N)CC(F)(F)F)sc2c(NCc3cccs3)cnnc12` [Compound 50, 6-[(2S)-2-amino-4,4,4-trifluorobutyl]-7-methyl-N-[(thiophen-2-yl)methyl]thieno[3,2-c]pyridazin-4-amine], the concentration for half-maximal inhibition (IC50) in assay [1] and in assay [2] was 0.501 to 5 µM throughout.

With `Cc1c(C[C@H](C)N)sc2c(NC(=O)c3cccs3)cnnc12` [Compound 51, N-{6-[(2S)-2-aminopropyl]-7-methylthieno[3,2-c]pyridazin-4-yl}thiophene-2-carboxamide], the IC50 in assay [1] and in assay [2] was 10 to 40 µM each time.

Take `Cc1c(C[C@@H](N)CC2CC2)sc2c(NCc3ccco3)cnnc12` [Compound 52, 6-[(2S)-2-amino-3-cyclopropylpropyl]-N-[(furan-2-yl)methyl]-7-methylthieno[3,2-c]pyridazin-4-amine]: the half-maximal inhibitory concentration (IC50) in assay [1] and in assay [2] was 0.501 to 5 µM in each case.

Consider `N[C@@H](CO)Cc1cc2nncc(NCc3cccs3)c2s1` [Compound 53, (2R)-2-amino-3-(4-{[(thiophen-2-yl)methyl]amino}thieno[3,2-c]pyridazin-6-yl)propan-1-ol], for which the IC50 in assay [1] and in assay [2] was 0.501 to 5 µM each time.

In the case of `Cc1c(C(C)CO)sc2c(NCc3cccs3)cnnc12` (centres unmarked) [Compound 54, 2-{7-methyl-4-[(thiophen-2-ylmethyl)amino]thieno[3,2-c]pyridazin-6-yl}propan-1-ol], the half-maximal inhibitory concentration (IC50) in assay [1] and in assay [2] was 10 to 40 µM each time.

Take `Cc1c(C(F)[C@H](C)N)sc2c(NCc3cccs3)cnnc12` (stereo partly drawn) [Compound 55, 6-[(2S)-2-amino-1-fluoropropyl]-7-methyl-N-[(thiophen-2-yl)methyl]thieno[3,2-c]pyridazin-4-amine]: the half-maximal inhibitory concentration (IC50) in assay [1] and in assay [2] was 0.501 to 5 µM in each case.

Regarding `Cc1c(C[C@H](C)N)sc2c(NCc3csc(F)c3)cnnc12` [Compound 56, 6-[(2S)-2-aminopropyl]-N-[(5-fluorothiophen-3-yl)methyl]-7-methylthieno[3,2-c]pyridazin-4-amine], the IC50 in assay [1] and in assay [2] was 10 to 40 µM in each case.

For `Cc1nnc2c(C)csc2c1NCc1cccs1` [Compound 57, 3,7-dimethyl-N-[(thiophen-2-yl)methyl]thieno[3,2-c]pyridazin-4-amine], the 50% inhibitory concentration (IC50) in assay [1] and in assay [2] was 10 to 40 µM each time.

Consider `CSC[C@H](N)Cc1sc2c(NCc3cccs3)cnnc2c1C` [Compound 58, 6-[(2R)-2-amino-3-(methylsulfanyl)propyl]-7-methyl-N-(thiophen-2-ylmethyl)thieno[3,2-c]pyridazin-4-amine], for which the concentration for half-maximal inhibition (IC50) in assay [1] and in assay [2] was 0.501 to 5 µM each time.

With `Cc1c(C[C@@H](N)C[S+](C)[O-])sc2c(NCc3cccs3)cnnc12` (stereo partly drawn) [Compound 59, 6-[(2R)-2-amino-3-methanesulfinylpropyl]-7-methyl-N-[(thiophen-2-yl)methyl]thieno[3,2-c]pyridazin-4-amine], the figures for the IC50 in assay [1] and in assay [2] were 5 to 10 µM and 10 to 40 µM, respectively.

Turning to `Cc1c(C[C@@H](N)CS(C)(=O)=O)sc2c(NCc3cccs3)cnnc12` [Compound 60, 6-[(2R)-2-amino-3-methanesulfonylpropyl]-7-methyl-N-(thiophen-2-ylmethyl)thieno[3,2-c]pyridazin-4-amine], the IC50 in assay [1] and in assay [2] was 5 to 10 µM throughout.

Take `Cc1c(C[C@@H](N)CCO)sc2c(NCc3cccs3)cnnc12` [Compound 61, (3S)-3-amino-4-(7-methyl-4-{[(thiophen-2-yl)methyl]amino}thieno[3,2-c]pyridazin-6-yl)butan-1-ol]: the concentration for half-maximal inhibition (IC50) in assay [1] and in assay [2] was 0.501 to 5 µM in each case.

`Cc1c(C[C@H](C)N)sc2c(NCc3ccc(Br)s3)cnnc12` [Compound 62, 6-[(2S)-2-aminopropyl]-N-[(5-bromothiophen-2-yl)methyl]-7-methylthieno[3,2-c]pyridazin-4-amine]: the half-inhibitory concentration (IC50) in assay [1] and in assay [2] was 5 to 10 µM throughout.

Turning to `Brc1csc2c(NCc3cccs3)cnnc12` [Compound 63, 7-bromo-N-(thiophen-2-ylmethyl)thieno[3,2-c]pyridazin-4-amine], the 50% inhibitory concentration (IC50) in assay [1] and in assay [2] was 10 to 40 µM throughout.

`Cc1c(C[C@@H](N)C2CC2)sc2c(NCc3ccco3)cnnc12` [Compound 64, 6-[(2R)-2-amino-2-cyclopropylethyl]-N-[(furan-2-yl)methyl]-7-methylthieno[3,2-c]pyridazin-4-amine]: the IC50 in assay [1] and in assay [2] was 5 to 10 µM throughout.

As for `Cc1c(C(C)(C)O)sc2c(NCc3cccs3)cnnc12` [Compound 65, 2-{7-methyl-4-[(thiophen-2-ylmethyl)amino]thieno [3,2-c]pyridazin-6-yl}propan-2-ol], the IC50 in assay [1] and in assay [2] was 10 to 40 µM each time.

Consider `Cc1c(C[C@H](C)N)sc2c(NCc3cccs3)c(Br)nnc12` [Compound 66, 6-[(2S)-2-aminopropyl]-3-bromo-7-methyl-N-[(thiophen-2-yl)methyl]thieno[3,2-c]pyridazin-4-amine], for which the half-maximal inhibitory concentration (IC50) in assay [1] and in assay [2] was 10 to 40 µM each time.

`Clc1csc2c(NCc3cccs3)cnnc12` [Compound 67, 7-chloro-N-[(thiophen-2-yl)methyl]thieno[3,2-c]pyridazin-4-amine]: the concentration for half-maximal inhibition (IC50) in assay [1] and in assay [2] was 10 to 40 µM in each case.

Consider `Cc1c(C[C@@H](N)CC2CC2)sc2c(NCc3cccs3)cnnc12` [Compound 68, 6-[(2S)-2-amino-3-cyclopropylpropyl]-7-methyl-N-[(thiophen-2-yl)methyl]thieno[3,2-c]pyridazin-4-amine], for which the IC50 in assay [1] and in assay [2] was 0.501 to 5 µM each time.

As for `Cc1c(C[C@H]2CCCN2)sc2c(NCc3cccs3)cnnc12` [Compound 69, 7-methyl-6-[(2R)-pyrrolidin-2-ylmethyl]-N-(thiophen-2-ylmethyl)thieno[3,2-c]pyridazin-4-amine], the 50% inhibitory concentration (IC50) in assay [1] and in assay [2] was 10 to 40 µM each time.

For the compound `Cc1c(C[C@@H]2CCN2)sc2c(NCc3cccs3)cnnc12` [Compound 71, 6-{[(2S)-azetidin-2-y1]methyl}-7-methyl-N-[(thiophen-2-yl)methyl]thieno[3,2-c]pyridazin-4-amine], the IC50 in assay [1] and in assay [2] was 10 to 40 µM each time.

The values are drawn from US20250101034A1, “COMPOSITIONS USEFUL FOR MODULATING SPLICING” (SKYHAWK THERAPEUTICS, INC., priority 2021, published 2025).
